This note sets out measurements from US20200079793A1, “COMPOUNDS AND METHODS FOR MODULATING ADENOSINE A2B RECEPTOR AND ADENOSINE A2A RECEPTOR” (CORVUS PHARMACEUTICALS, INC., priority 2018, published 2020).

Bounds are passed on as bounds.

The target of one test is T1, Adenosine A2B Receptor (Homo sapiens, UniProt P29275).
T1 sequence (P29275 1-332): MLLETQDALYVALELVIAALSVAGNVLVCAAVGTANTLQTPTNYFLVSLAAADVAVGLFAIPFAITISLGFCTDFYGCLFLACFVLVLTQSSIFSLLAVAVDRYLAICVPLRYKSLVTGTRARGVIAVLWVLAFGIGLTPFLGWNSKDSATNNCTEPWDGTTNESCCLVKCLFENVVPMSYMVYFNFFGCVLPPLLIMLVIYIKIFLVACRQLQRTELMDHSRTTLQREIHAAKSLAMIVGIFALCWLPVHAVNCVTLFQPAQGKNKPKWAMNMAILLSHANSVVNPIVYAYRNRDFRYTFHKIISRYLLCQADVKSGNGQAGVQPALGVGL
Briefly: Activity assay of adenosine receptor modulators, Adenosine A2B Receptor (Table 1). The class given is biochemical. To be noted: cAMP; read-out: A2BR cAMP IC50. How it is done: (§1) Compounds (e.g., adenosine receptor modulators) were tested for its biological activity. The assay results in Table 1 indicate (+ means >1 μM; ++ means 100 nM to 1 μM; +++ means <100 nM).

The target of the next test is T2, A1R (Homo sapiens, UniProt P30542).
T2 sequence (P30542 1-326): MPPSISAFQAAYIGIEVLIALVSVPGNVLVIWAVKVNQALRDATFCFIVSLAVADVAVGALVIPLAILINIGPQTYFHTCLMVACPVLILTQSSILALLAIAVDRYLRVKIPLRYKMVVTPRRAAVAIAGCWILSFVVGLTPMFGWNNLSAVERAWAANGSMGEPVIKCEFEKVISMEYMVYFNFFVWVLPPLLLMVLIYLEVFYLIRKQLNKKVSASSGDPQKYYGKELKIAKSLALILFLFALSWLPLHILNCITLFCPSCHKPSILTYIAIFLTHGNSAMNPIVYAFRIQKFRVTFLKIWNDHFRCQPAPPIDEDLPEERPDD
The test is described as follows: Activity assay of adenosine receptor modulators, A1R cAMP (Table 1). In kind it is cell-based. How it is done: as §1

The next test addresses T3, A3R (Homo sapiens, UniProt P0DMS8).
T3 sequence (P0DMS8 1-318): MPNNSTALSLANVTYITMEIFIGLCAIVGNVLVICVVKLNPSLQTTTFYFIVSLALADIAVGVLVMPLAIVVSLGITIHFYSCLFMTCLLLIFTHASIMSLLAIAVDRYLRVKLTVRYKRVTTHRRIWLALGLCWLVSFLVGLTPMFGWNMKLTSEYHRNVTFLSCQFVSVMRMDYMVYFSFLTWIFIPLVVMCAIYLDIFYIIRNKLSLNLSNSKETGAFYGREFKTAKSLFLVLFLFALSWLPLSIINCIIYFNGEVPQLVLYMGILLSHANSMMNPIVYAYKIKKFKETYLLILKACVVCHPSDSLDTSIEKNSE
The test is described as follows: Activity assay of adenosine receptor modulators, A3R cAMP (Table 1). The class given is cell-based. How it is done:
as §1

The target of another test is Adenosine A2A Receptor (Homo sapiens, UniProt P29274). The test is described as follows: Activity assay of adenosine receptor modulators, Adenosine A2A Receptor (Table 1). The class given is biochemical. Conditions: cAMP; read-out: A2AR cAMP IC50. How it is done: as §1
Adenosine A2A Receptor, sequence (P29274 whole entry): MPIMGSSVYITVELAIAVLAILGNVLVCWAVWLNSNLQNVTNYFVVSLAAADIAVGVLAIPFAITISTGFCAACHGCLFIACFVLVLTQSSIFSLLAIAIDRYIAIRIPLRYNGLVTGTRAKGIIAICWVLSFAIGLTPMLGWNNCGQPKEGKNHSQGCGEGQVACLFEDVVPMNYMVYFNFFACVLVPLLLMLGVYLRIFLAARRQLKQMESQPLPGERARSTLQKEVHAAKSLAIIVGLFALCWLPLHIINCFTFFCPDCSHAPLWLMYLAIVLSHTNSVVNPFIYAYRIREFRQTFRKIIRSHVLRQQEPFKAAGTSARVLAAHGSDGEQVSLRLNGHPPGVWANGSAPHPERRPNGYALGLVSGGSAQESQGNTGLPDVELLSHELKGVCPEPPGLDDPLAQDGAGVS

A word on the IC50: it is the concentration at which inhibition is half-maximal. In the case of `Cc1nc2nc(N[C@@H](C)c3cncc(F)c3)nc(C(=O)NCCc3ccc(S(N)(=O)=O)cc3)c2s1` [Example 31, (S)-5-((1-(5-Fluoropyridin-3-yl)ethyl)amino)-2-methyl-N-(4-sulfamoylphenethyl)thiazolo[4,5-d]pyrimidine-7-carboxamide], the IC50 on Adenosine A2B Receptor was less than 100 nM; at A1R, greater than 1000 nM; against A3R, greater than 1000 nM; at Adenosine A2A Receptor it was greater than 1000 nM.

For the compound `Cc1nc2nc(N[C@@H](C)c3cncc(F)c3)nc(C(=O)NCCC3CCNCC3)c2s1` [Example 32, (S)-5-((1-(5-Fluoropyridin-3-yl)ethyl)amino)-2-methyl-N-(2-(piperidin-4-yl)ethyl)thiazolo[4,5-d]pyrimidine-7-carboxamide], the IC50 was less than 100 nM on Adenosine A2B Receptor, greater than 1000 nM against A1R, greater than 1000 nM against A3R and greater than 1000 nM on Adenosine A2A Receptor.

Consider `Cc1nc2nc(N[C@@H](C)c3cncc(F)c3)nc(C(=O)N3CC(C(N)=O)C3)c2s1` [Example 33, (S)-1-(5-((1-(5-Fluoropyridin-3-yl)ethyl)amino)-2-methylthiazolo[4,5-d]pyrimidine-7-carbonyl)azetidine-3-carboxamide], for which the half-inhibitory concentration (IC50) on Adenosine A2B Receptor was less than 100 nM; against A1R it was greater than 1000 nM; against A3R, greater than 1000 nM; at Adenosine A2A Receptor, greater than 1000 nM.

For `Cc1nc2nc(N[C@@H](C)c3cncc(F)c3)nc(C(=O)N3CC(NC(=O)C(C)(C)C)C3)c2s1` [Example 37, (S)—N-(1-(5-((1-(5-Fluoropyridin-3-yl)ethyl)amino)-2-methylthiazolo[4,5-d]pyrimidine-7-carbonyl)azetidin-3-yl)pivalamide], the IC50 is less than 100 nM on Adenosine A2B Receptor, greater than 1000 nM at A1R, less than 100 nM at A3R and less than 100 nM at Adenosine A2A Receptor.

Take `CCNC(=O)C1CCN(C(=O)c2nc(N[C@@H](C)c3cncc(F)c3)nc3nc(C)sc23)C1` (stereo partly drawn) [Example 38, N-ethyl-1-(5-(((S)-1-(5-fluoropyridin-3-yl)ethyl)amino)-2-methylthiazolo[4,5-d]pyrimidine-7-carbonyl)pyrrolidine-3-carboxamide]: the half-inhibitory concentration (IC50) is less than 100 nM on Adenosine A2B Receptor, greater than 1000 nM against A1R, greater than 1000 nM against A3R and greater than 1000 nM on Adenosine A2A Receptor.

With `CC(=O)NCC1CN(C(=O)c2nc(N[C@@H](C)c3cncc(F)c3)nc3nc(C)sc23)C1` [Example 39, (S)—N-((1-(5-((1-(5-Fluoropyridin-3-yl)ethyl)amino)-2-methylthiazolo[4,5-d]pyrimidine-7-carbonyl)azetidin-3-yl)methyl)acetamide], the IC50 at Adenosine A2B Receptor is less than 100 nM; against A1R it was greater than 1000 nM; at A3R it was greater than 1000 nM; on Adenosine A2A Receptor, greater than 1000 nM.

As for `CO[C@@H]1CCN(C(=O)c2nc(N[C@@H](C)c3cncc(F)c3)nc3nc(C)sc23)C1` [Example 40, (5-(((S)-1-(5-Fluoropyridin-3-yl)ethyl)amino)-2-methylthiazolo[4,5-d]pyrimidin-7-yl)((R)-3-methoxypyrrolidin-1-yl)methanone], the IC50 at Adenosine A2B Receptor is less than 100 nM; at A1R it was greater than 1000 nM; at A3R, greater than 1000 nM; on Adenosine A2A Receptor, 100 to 1000 nM.

As to `CO[C@H]1CCN(C(=O)c2nc(N[C@@H](C)c3cncc(F)c3)nc3nc(C)sc23)C1` [Example 41, (5-(((S)-1-(5-Fluoropyridin-3-yl)ethyl)amino)-2-methylthiazolo[4,5-d]pyrimidin-7-yl)((S)-3-methoxypyrrolidin-1-yl)methanone], the IC50 at Adenosine A2B Receptor is less than 100 nM; at A1R, greater than 1000 nM; at A3R, greater than 1000 nM; at Adenosine A2A Receptor, greater than 1000 nM.

Regarding `COC[C@@H]1CCN(C(=O)c2nc(N[C@@H](C)c3cncc(F)c3)nc3nc(C)sc23)C1` [Example 47, (5-(((S)-1-(5-Fluoropyridin-3-yl)ethyl)amino)-2-methylthiazolo[4,5-d]pyrimidin-7-yl)((R)-3-(methoxymethyl)pyrrolidin-1-yl)methanone], the IC50 was less than 100 nM at Adenosine A2B Receptor, greater than 1000 nM against A1R, greater than 1000 nM at A3R and greater than 1000 nM at Adenosine A2A Receptor.

In the case of `COC[C@H]1CCN(C(=O)c2nc(N[C@@H](C)c3cncc(F)c3)nc3nc(C)sc23)C1` [Example 48, (5-(((S)-1-(5-Fluoropyridin-3-yl)ethyl)amino)-2-methylthiazolo[4,5-d]pyrimidin-7-yl)((S)-3-(methoxymethyl)pyrrolidin-1-yl)methanone], the IC50 was less than 100 nM on Adenosine A2B Receptor, greater than 1000 nM at A1R, greater than 1000 nM at A3R and 100 to 1000 nM on Adenosine A2A Receptor.

For `Cc1nc2nc(N[C@@H](C)c3cncc(F)c3)nc(C(=O)N3CC[C@@H](CO)C3)c2s1` [Example 49, (5-(((S)-1-(5-Fluoropyridin-3-yl)ethyl)amino)-2-methylthiazolo[4,5-d]pyrimidin-7-yl)((R)-3-(hydroxymethyl)pyrrolidin-1-yl)methanone], the half-inhibitory concentration (IC50) on Adenosine A2B Receptor was less than 100 nM; against A1R, greater than 1000 nM; on A3R, greater than 1000 nM; at Adenosine A2A Receptor, greater than 1000 nM.

With `Cc1nc2nc(N[C@@H](C)c3cncc(F)c3)nc(C(=O)N3CC[C@H](CO)C3)c2s1` [Example 50, (5-(((S)-1-(5-Fluoropyridin-3-yl)ethyl)amino)-2-methylthiazolo[4,5-d]pyrimidin-7-yl)((S)-3-(hydroxymethyl)pyrrolidin-1-yl)methanone], the IC50 on Adenosine A2B Receptor was less than 100 nM; on A1R, greater than 1000 nM; against A3R, greater than 1000 nM; at Adenosine A2A Receptor, 100 to 1000 nM.

Take `COCC1CN(C(=O)c2nc(N[C@@H](C)c3cncc(F)c3)nc3nc(C)sc23)C1` [Example 51, (S)-(5-((1-(5-Fluoropyridin-3-yl)ethyl)amino)-2-methylthiazolo[4,5-d]pyrimidin-7-yl)(3-(methoxymethyl)azetidin-1-yl)methanone]: the IC50 is less than 100 nM on Adenosine A2B Receptor, greater than 1000 nM on A1R, greater than 1000 nM against A3R and 100 to 1000 nM at Adenosine A2A Receptor.

On to `CC(=O)NC[C@@H]1CCN(C(=O)c2nc(N[C@@H](C)c3cncc(F)c3)nc3nc(C)sc23)C1` [Example 52, N—(((S)-1-(5-(((S)-1-(5-Fluoropyridin-3-yl)ethyl)amino)-2-methylthiazolo[4,5-d]pyrimidine-7-carbonyl)pyrrolidin-3-yl)methyl)acetamide], for which the IC50 on Adenosine A2B Receptor is less than 100 nM; against A1R, greater than 1000 nM; against A3R it was greater than 1000 nM; at Adenosine A2A Receptor, greater than 1000 nM.

Take `CC(=O)NC[C@H]1CCN(C(=O)c2nc(N[C@@H](C)c3cncc(F)c3)nc3nc(C)sc23)C1` [Example 53, N—(((R)-1-(5-(((S)-1-(5-Fluoropyridin-3-yl)ethyl)amino)-2-methylthiazolo[4,5-d]pyrimidine-7-carbonyl)pyrrolidin-3-yl)methyl)acetamide]: the IC50 is 100 to 1000 nM on Adenosine A2B Receptor, greater than 1000 nM against A1R, greater than 1000 nM against A3R and greater than 1000 nM at Adenosine A2A Receptor.

Turning to `Cc1nc2nc(N[C@@H](C)c3cncc(F)c3)nc(C(=O)N3CC(NC(=O)C4(C)CC4)C3)c2s1` [Example 54, (S)—N-(1-(5-((1-(5-Fluoropyridin-3-yl)ethyl)amino)-2-methylthiazolo[4,5-d]pyrimidine-7-carbonyl)azetidin-3-yl)-1-methylcyclopropane-1-carboxamide], the IC50 on Adenosine A2B Receptor is less than 100 nM; on A1R, greater than 1000 nM; against A3R, less than 100 nM; at Adenosine A2A Receptor, less than 100 nM.

Take `Cc1nc2nc(N[C@@H](C)c3cncc(F)c3)nc(C(=O)N3CC(NC(=O)C4CCCC4)C3)c2s1` [Example 55, (S)—N-(1-(5-((1-(5-Fluoropyridin-3-yl)ethyl)amino)-2-methylthiazolo[4,5-d]pyrimidine-7-carbonyl)azetidin-3-yl)cyclopentanecarboxamide]: the concentration for half-maximal inhibition (IC50) is less than 100 nM at Adenosine A2B Receptor, greater than 1000 nM on A1R, less than 100 nM against A3R and less than 100 nM at Adenosine A2A Receptor.

Turning to `Cc1nc2nc(N[C@@H](C)c3cncc(F)c3)nc(C(=O)N3CC(NC(=O)C4CCC4)C3)c2s1` [Example 56, (S)—N-(1-(5-((1-(5-Fluoropyridin-3-yl)ethyl)amino)-2-methylthiazolo[4,5-d]pyrimidine-7-carbonyl)azetidin-3-yl)cyclobutanecarboxamide], the half-inhibitory concentration (IC50) at Adenosine A2B Receptor was less than 100 nM; at A1R, greater than 1000 nM; against A3R, less than 100 nM; on Adenosine A2A Receptor, less than 100 nM.
